Here are results for 37 molecules from ChEMBL document CHEMBL4483862, “Open-source discovery of chemical leads for next-generation chemoprotective antimalarials” (2018).

The structures appear in SMILES notation. Where only a bound is given, the exact number is not on record here.

The test has as its system Plasmodium berghei. Briefly: Luciferase/luciferin-expressing antifolate-resistant parasites were used to infect a culture of HepG2 cells that were pre-incubated with compounds. Infected hepatocytes emit light due to the luciferase reaction. Assay results are presented as the percent inhibition of light emission compared to control. […]. The test is classed as functional. Conditions: sporozoite; for IC90: read-out: LUCIFERASE INFECTION ASSAY - IC90.

The mark [1] stands for this setting: read-out: LUCIFERASE INFECTION ASSAY - IC50.

For orientation: IC50 means the midpoint of a concentration-inhibition curve. A word on the IC90: it is the concentration at which the effect reaches the 90% level. `CSc1sc(C(=O)N/N=C/c2ccc(Cl)cc2)cc1S(=O)(=O)C(C)C`: the IC90 turned out to be 5.75 µM. In addition, the IC50 (HEPG2TOX_HILL_SLOPE 1.17, HEPG2TOX_R_SQUARED 0.979, PBLUC_HILL_SLOPE 3, PBLUC_R_SQUARED 0.696, read-out: LUCIFERASE INFECTION ASSAY - IC50) was 2.77 µM.

On to `COc1cccc(Cn2c3ccc(NC(=O)CC4CCCCC4)cc3c(=O)n2C)c1`, for which the IC90 is more than 8.1 µM. Moreover, the IC50 under setting [1] was more than 8.1 µM.

Take `Nc1nc2c(C(=O)c3cccs3)nnn2c2ccc(Cl)cc12`: the IC90 stood at 0.489 µM. Moreover, the IC50 (FFLUC_HILL_SLOPE 1.53, FFLUC_R_SQUARED 0.767, PBLUC_HILL_SLOPE 0.914, PBLUC_R_SQUARED 0.801, read-out: LUCIFERASE INFECTION ASSAY - IC50) amounted to 0.0442 µM.

For `CCNC(=O)C(C)NC(=O)c1cc(-c2ccccc2)nc2c1cnn2Cc1ccccc1Cl` (centres undefined), the IC90 amounted to 0.0487 µM. Also, the IC50 (PBLUC_HILL_SLOPE 3.93, PBLUC_R_SQUARED 0.959, read-out: LUCIFERASE INFECTION ASSAY - IC50) was 0.0279 µM.

`COC(=O)c1c(NC(C)=O)c2cc(NC(C)CC(C)C)cnc2n1CCC(C)C` (centres undefined): the IC90 is more than 8.2 µM. Moreover, under setting [1], the IC50 is more than 8.2 µM.

As for `O=C(/C(=N/Nc1ccc(OC(F)(F)F)cc1)C(=O)C(F)(F)F)c1cccs1`, the IC90 is more than 8.04 µM. Also, where the note is “PBLUC_HILL_SLOPE 12.2, PBLUC_R_SQUARED 0.21, read-out: LUCIFERASE INFECTION ASSAY - IC50”, the IC50 is 7.58 µM.

As for `Cc1nc(SCC(=O)c2ccc(N3CCCC3=O)cc2)c2c(C)c(C)sc2n1`, the IC90 is more than 10 µM. Further, the IC50 under setting [1] came to 7.98 µM.

Consider `COc1ccc(NS(=O)(=O)c2ccc(/C=C/C(=O)N(C)Cc3ccc(OC)c(OC)c3OC)cc2)cc1`, for which the IC90 is more than 10 µM. Further, the IC50 (HEPG2TOX_HILL_SLOPE 0.416, HEPG2TOX_R_SQUARED 0.547, PBLUC_HILL_SLOPE 11.7, PBLUC_R_SQUARED 0.671, read-out: LUCIFERASE INFECTION ASSAY - IC50) is 9.46 µM.

For the molecule `Cc1c(C)n(CCN(C)C)c2ncn3nc(-c4ccccc4O)nc3c12`, the IC90 is more than 9.42 µM. Where the note is “PBLUC_HILL_SLOPE 1.46, PBLUC_R_SQUARED 0.808, read-out: LUCIFERASE INFECTION ASSAY - IC50”, the IC50 came to 2.21 µM.

In the case of `O=C(NCC1CC1)c1cccc(C2(CNCCCN3CCOCC3)CC2)c1`, the IC90 is more than 10 µM. In addition, the concentration for half-maximal inhibition (IC50) under setting [1] is more than 10 µM.

As for `N=C1C(c2nc3ccccc3[nH]2)C(=O)CN1NC(=O)Cn1nnc(-c2cccc(C(F)(F)F)c2)n1` (centres undefined), the IC90 was more than 10 µM. In addition, under setting [1], the IC50 is more than 10 µM.

Take `COc1ccc(OC)c(C(=O)c2oc3cc(NC(=O)C4CC4)ccc3c2C)c1`: the IC90 stood at 0.519 µM. In addition, under setting [1], the IC50 was determined as 0.214 µM.

Regarding `COc1cccc(Cn2nc(C(=O)NC3CC3)c3c2CCN(C(=O)c2cc4ccccc4[nH]2)C3)c1`, the concentration for an effect of 90% (IC90) was more than 7.03 µM. The IC50 under setting [1] was more than 7.03 µM.

In the case of `Fc1ccc(CNc2ccc3ncc(Br)n3n2)cc1`, the IC90 is more than 10.3 µM. Besides, the IC50 (FFLUC_HILL_SLOPE 12.6, FFLUC_R_SQUARED 0.212, PBLUC_HILL_SLOPE 1.62, PBLUC_R_SQUARED 0.732, read-out: LUCIFERASE INFECTION ASSAY - IC50) was determined as 5.26 µM.

For the molecule `Cc1ccc(C(=O)Nc2nc3ccccn3c2C(=O)NC2CCCCC2)cc1`, the IC90 turned out to be 1.16 µM. The IC50 (HEPG2TOX_HILL_SLOPE 2.97, HEPG2TOX_R_SQUARED 0.276, PBLUC_HILL_SLOPE 14.7, PBLUC_R_SQUARED 0.56, read-out: LUCIFERASE INFECTION ASSAY - IC50) turned out to be 1 µM.

On to `Cc1cc(=O)n2ncnc2n1CC(O)COc1ccc(Oc2ccccc2)cc1` (centres undefined), for which the IC90 stood at 8.2 µM. In addition, the IC50 (HEPG2TOX_HILL_SLOPE 1.76, HEPG2TOX_R_SQUARED 0.892, PBLUC_HILL_SLOPE 2.97, PBLUC_R_SQUARED 0.356, read-out: LUCIFERASE INFECTION ASSAY - IC50) came to 3.91 µM.

On to `Cc1nn(-c2ccc(C(=O)Nc3nc(CN4CCCC4)cs3)cc2)c(C)c1Cl`, for which the IC90 turned out to be 7.87 µM. Besides, the IC50 (PBLUC_HILL_SLOPE 4.86, PBLUC_R_SQUARED 0.713, read-out: LUCIFERASE INFECTION ASSAY - IC50) turned out to be 5.01 µM.

Take `CC1N(C)c2ccc(/C=C/c3cc[n+](C)cc3)cc2C1(C)C` (centres undefined): the IC90 turned out to be 4.04 µM. The IC50 under setting [1] came out at 3.32 µM.

Take `Cn1ccc2cc(-c3cnc4cnc(-c5cccc(C(N)=O)c5)cn34)ccc21`: the IC90 was more than 8.98 µM. Moreover, the half-inhibitory concentration (IC50) (HEPG2TOX_HILL_SLOPE 1.25, HEPG2TOX_R_SQUARED 0.898, PBLUC_HILL_SLOPE 0.953, PBLUC_R_SQUARED 0.66, read-out: LUCIFERASE INFECTION ASSAY - IC50) was 1.23 µM.

Regarding `CCNC(=O)c1cc2c(s1)CCC(C(C)(C)C)C2` (centres undefined), the IC90 is more than 10 µM. For the same molecule, the IC50 (PBLUC_HILL_SLOPE 3.05, PBLUC_R_SQUARED 0.267, read-out: LUCIFERASE INFECTION ASSAY - IC50) was found to be 6.74 µM.

In the case of `Cc1noc(C)c1COc1ccc(C(=O)OCC(=O)NCCC2=CCCCC2)cc1`, the IC90 is 8.4 µM. The IC50 (HEPG2TOX_HILL_SLOPE 9.34, HEPG2TOX_R_SQUARED 0.702, PBLUC_HILL_SLOPE 3.46, PBLUC_R_SQUARED 0.677, read-out: LUCIFERASE INFECTION ASSAY - IC50) worked out at 4.45 µM.

Take `CC(Nc1ccc(N(C)C(C)C)c(F)c1)C(=O)N1CCCC1` (centres undefined): the IC90 worked out at 9.36 µM. For the same molecule, where the note is “PBLUC_HILL_SLOPE 12.8, PBLUC_R_SQUARED 0.621, read-out: LUCIFERASE INFECTION ASSAY - IC50”, the IC50 was 7.89 µM.

Consider `CCS(=O)(=O)N1Cc2ccccc2CC1C(=O)Nc1nc2ccc(F)cc2s1` (centres undefined), for which the IC90 was more than 10 µM. Besides, for the setting “PBLUC_HILL_SLOPE 0.63, PBLUC_R_SQUARED 0.752, read-out: LUCIFERASE INFECTION ASSAY - IC50”, the IC50 was determined as 2.29 µM.

Consider `N#Cc1cc(NC(=O)c2ccc(Cl)cc2)ccc1Sc1ccccc1`, for which the IC90 was more than 9.04 µM. Further, the IC50 under setting [1] was more than 9.04 µM.

Consider `Cc1cc(C(=N)NOC(=O)C(C)(C)C)cc(C(=N)NOC(=O)C(C)(C)C)c1`, for which the IC90 is more than 8.77 µM. Besides, the IC50 under setting [1] is more than 8.77 µM.

With `Cc1ccc(S(=O)(=O)N(C)CC(=O)N(C)Cc2ccccc2OC(F)(F)F)cc1C`, the IC90 is more than 10 µM. The IC50 under setting [1] is more than 10 µM.

Turning to `CC(=O)c1ccc(-c2ccc(C(=O)N3CCc4sccc4C3)o2)cc1`, the IC90 is more than 10 µM. The IC50 (PBLUC_HILL_SLOPE 1.84, PBLUC_R_SQUARED 0.357, read-out: LUCIFERASE INFECTION ASSAY - IC50) was 4.1 µM.

In the case of `CC(C)S(=O)(=O)c1csc(NC(=O)Nc2cccc(Cl)c2)c1`, the IC90 was more than 9.2 µM. For the same molecule, where the note is “PBLUC_HILL_SLOPE 17.1, PBLUC_R_SQUARED 0.0949, read-out: LUCIFERASE INFECTION ASSAY - IC50”, the IC50 was found to be 8.62 µM.

For the molecule `Cc1cc(NC(c2cccc(Br)c2)c2ccc3cccnc3c2O)no1` (centres undefined), the IC90 is 5.63 µM. Also, the IC50 (FFLUC_HILL_SLOPE 0.447, FFLUC_R_SQUARED 0.211, HEPG2TOX_HILL_SLOPE 1.34, HEPG2TOX_R_SQUARED 0.983, PBLUC_HILL_SLOPE 2.79, PBLUC_R_SQUARED 0.445, read-out: LUCIFERASE INFECTION ASSAY - IC50) turned out to be 2.56 µM.

As to `Fc1ccc(-c2ccc3ncc(-c4cccnc4)n3n2)cc1`, the IC90 is more than 3.33 µM. The IC50 (HEPG2TOX_HILL_SLOPE 0.173, HEPG2TOX_R_SQUARED 0.325, read-out: LUCIFERASE INFECTION ASSAY - IC50) is more than 3.33 µM.

In the case of `Cc1csc2sc(/C=N/Cc3cccs3)c(C)c12`, the IC90 is more than 11.3 µM. Further, the IC50 under setting [1] was more than 11.3 µM.

With `Cc1cccc(-c2cc(C(=O)Nc3cccc(Cl)c3)[nH]n2)c1O`, the IC90 amounted to 9.89 µM. For the same molecule, the IC50 (HEPG2TOX_HILL_SLOPE 6.46, HEPG2TOX_R_SQUARED 0.463, PBLUC_HILL_SLOPE 41.9, PBLUC_R_SQUARED 0.193, read-out: LUCIFERASE INFECTION ASSAY - IC50) worked out at 9.38 µM.

Turning to `Cc1cc(NCc2ccccn2)n2nc(C)c(-c3ccccc3Cl)c2n1`, the IC90 stood at 5.5 µM. In addition, the IC50 (HEPG2TOX_HILL_SLOPE 4.48, HEPG2TOX_R_SQUARED 0.152, PBLUC_HILL_SLOPE 2.08, PBLUC_R_SQUARED 0.431, read-out: LUCIFERASE INFECTION ASSAY - IC50) stood at 1.91 µM.

Consider `Cc1ccc(-c2nc(NC(=O)c3ccc4c(=O)[nH]c(=O)n(C)c4n3)sc2-c2ccc(C)cc2)cc1`, for which the IC90 stood at 4.58 µM. In addition, under “FFLUC_HILL_SLOPE 5.14, FFLUC_R_SQUARED 0.303, PBLUC_HILL_SLOPE 8.87, PBLUC_R_SQUARED 0.194, read-out: LUCIFERASE INFECTION ASSAY - IC50”, the IC50 came out at 3.57 µM.

Turning to `CNc1nc2cnc(Nc3ccc(C(C)C)cc3)cc2n1-c1cc(OC)c(OC)c(OC)c1`, the IC90 was more than 10 µM. The IC50 (HEPG2TOX_HILL_SLOPE 3.92, HEPG2TOX_R_SQUARED 0.032, PBLUC_HILL_SLOPE 0.581, PBLUC_R_SQUARED 0.333, read-out: LUCIFERASE INFECTION ASSAY - IC50) was more than 10 µM.

As for `Cc1nc(NCc2ccc(N3CCN(C)CC3)nc2)c2c(-c3ccccc3)csc2n1`, the IC90 came to 3.73 µM. For the same molecule, the IC50 (HEPG2TOX_HILL_SLOPE 1.47, HEPG2TOX_R_SQUARED 0.785, PBLUC_HILL_SLOPE 14.9, PBLUC_R_SQUARED 0.788, read-out: LUCIFERASE INFECTION ASSAY - IC50) worked out at 3.22 µM.

For `CCc1nn2c(=O)c(CC)c(C)[nH]c2c1-c1ccc(Cl)cc1`, the IC90 was more than 10.4 µM. For the same molecule, the IC50 (FFLUC_HILL_SLOPE 10.5, FFLUC_R_SQUARED 0.352, PBLUC_HILL_SLOPE 13.5, PBLUC_R_SQUARED 0.435, read-out: LUCIFERASE INFECTION ASSAY - IC50) was 8.92 µM.
